In the first test the target is T1, carbamoylytic enzyme (Enzyme II, carbamoylase) (Agrobacterium radiobacter, UniProt Q44185).
T1 construct: endogenous in cells; host or cells: Agrobacterium sp. cells, acetone-dried powder (crude, enzyme not purified)
T1 sequence (Q44185 whole entry): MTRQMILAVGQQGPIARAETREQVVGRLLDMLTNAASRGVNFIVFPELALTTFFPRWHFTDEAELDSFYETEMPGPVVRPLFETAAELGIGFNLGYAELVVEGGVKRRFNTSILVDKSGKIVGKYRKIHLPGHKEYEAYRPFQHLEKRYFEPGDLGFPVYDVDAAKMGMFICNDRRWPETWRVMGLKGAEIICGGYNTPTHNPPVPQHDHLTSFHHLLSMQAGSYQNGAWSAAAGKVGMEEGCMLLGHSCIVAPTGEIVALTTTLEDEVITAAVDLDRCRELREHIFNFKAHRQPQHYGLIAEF
Put plainly: enzymic activity test of acetonic powder of Agrobacterium sp. cells on N-carbamoyl aminoacid substrates (NH4+ by phenol-hypochlorite method). Type of test: biochemical. Particulars: 20 mM substrate in pyrophosphate buffer 0.1 M pH 7.7, acetonic powder, 40° C., 1-hour incubation, under nitrogen. The protocol: Cells of Agrobacterium sp. strain were prepared as described in Example 1. A few grams of moist cellule slurry was slurried in pyrophosphate buffer (0.1 M pH 7.7) and subjected to acetonic treatment in the cold.
After removing acetone by filtration, the acetonic preparation thus obtained was dried to constant weight in vacuum at 35° C. The dried material was homogenized in a mortar and powder thus obtained was used for the enzymic activity tests.
The caetonic powder was assayed on the following substrates: N-carbamoyl-D-(-)-alanine, N-carbamoyl-D(-) valine, N-carbamoyl-D-(-)glutamic acid, N-carbamoyl-D(-)-parahydroxyphenylglycine,N-carbamoyl-D(-)-paramethoxyphenylglycine, N-carbamoyl-D-(-)-phenylglycine, N-carbamoyl-L(+)-phenylglycine, N-carbamoyl-D(-)-phenylalanine, N-carbamoyl-L(+)-glutamic acid and N-carbamoyl-D(-) (2-thienyl)-glycine.
Thus, 20 mM solution were prepared of each carbamoyl derivative in pyrophosphate buffer 0.1 M pH 7.7, and, to 10 mls of each solution there was added an adequate quantity of acetonic powder, equal for each substrate.
The incubation was carried out under a UPP nitrogen blanket with stirring at a temperature of 40° C. After 1-hour incubation, the quantity of the produced aminoacid was measured by determining in the reaction mixtures the concentration of the NH4^+ ion which has been reached, with the phenol-hypochlorite method indicated in Example 2.
On to `NC(=O)N[C@@H](C(=O)O)c1cccs1` [N-carbamoyl-D(-)-(2-thienyl)glycine], for which the “% ACTIVITY (hydrolytic activity, assuming as 100 the activity against N-carbamoyl-D(-)-parahydroxyphenylglycine)” value (“% ACTIVITY” below) turned out to be 40.7%.
`NC(=O)N[C@@H](C(=O)O)c1ccc(O)cc1` [N-carbamoyl-D(-)-parahydroxyphenylglycine]: the “% ACTIVITY” value was determined as 100.0%.
Take `COc1ccc([C@@H](NC(N)=O)C(=O)O)cc1` [N-carbamoyl-D(-)-paramethoxyphenylglycine]: the “% ACTIVITY” value is given as 40.0%.
Take `NC(=O)N[C@H](Cc1ccccc1)C(=O)O` [N-carbamoyl-D(-)-phenylalanine]: the “% ACTIVITY” value is listed as 50.0%.
With `NC(=O)N[C@@H](C(=O)O)c1ccccc1` [N-carbamoyl-D(-)-phenylglycine], the “% ACTIVITY” value worked out at 81.25%.
Take `CC(C)[C@@H](NC(N)=O)C(=O)O` [N-carbamoyl-D(-)-valine]: the “% ACTIVITY” value turned out to be 34.25%.
Same read-out and setting: with `NC(=O)N[C@H](CCC(=O)O)C(=O)O` [N-carbamoyl-D(-)glutamic acid] the figure was 21.7%.
Take `C[C@@H](NC(N)=O)C(=O)O` [N-carbamoyl-D-(-)-alanine]: the “% ACTIVITY” value is reported as 57.5%.
With `NC(=O)N[C@H](C(=O)O)c1ccccc1` [N-carbamoyl-L(+)-phenylglycine], the “% ACTIVITY” value turned out to be 0%.
For the compound `NC(=O)N[C@@H](CCC(=O)O)C(=O)O` [N-carbamoyl-L(+)glutamic acid], the “% ACTIVITY” value worked out at 0%.

The test is the same for the next values; noted with them: 20 mM substrate, pyrophosphate buffer 0.1 M pH 7.7, 40° C., 1-hour incubation.
Regarding `NC(=O)N[C@@H](C(=O)O)c1ccc(O)cc1` [N-carbamoyl-D(-)-parahydroxyphenylglycine], the “activity of the carbamoylytic enzyme, ranking among substrates” value is “highest activity”.

(Values after patent publication US4312948A, “Enzymic microbiological process for producing optically active aminoacids starting from hydantoins and/or racemic carbamoyl derivatives” (priority 1978, dated 1982).)
